14 molecules from US7524853B2 (Solvay Pharmaceuticals B.V., priority 2003, dated 2009) can be followed below.

What all share (type): cell-based
Assay [1] addresses T1, 17β-hydroxysteroid dehydrogenase type 3 (17β-HSD type 3) (Homo sapiens, UniProt P37058).
T1 construct: expressed in transfected cells; host or cells: MCF-7
T1 sequence (P37058 1-310): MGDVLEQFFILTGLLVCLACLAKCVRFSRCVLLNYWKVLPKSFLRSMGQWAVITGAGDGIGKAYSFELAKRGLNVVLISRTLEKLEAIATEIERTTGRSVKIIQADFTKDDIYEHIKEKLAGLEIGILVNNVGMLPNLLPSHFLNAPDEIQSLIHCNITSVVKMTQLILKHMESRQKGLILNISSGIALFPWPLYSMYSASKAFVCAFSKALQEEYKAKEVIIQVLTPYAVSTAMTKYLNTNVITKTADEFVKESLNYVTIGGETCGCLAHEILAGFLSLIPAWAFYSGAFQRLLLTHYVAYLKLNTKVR
The assay can be described thus: Inhibition of 17β-HSD type 3 in MCF-7 cells stably expressing the isoenzyme (tritium labeled androstenedione conversion, HPLC). The conditions noted are these: MCF-7 cells expressing 17β-HSD type 3, 2 nM tritium labeled androstenedione; for inhibition at 1 µM / inhibition at 10 µM: MCF7; for inhibition at 1 µM: read-out: % Inhibition HSD3 1 μM; for inhibition at 10 µM: read-out: % Inhibition HSD3 10 μM. The procedure, abridged:
(§1)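 Whole-cell MCF-7 lines, one isoenzyme each; substrate 2 nM ³H-estrone (type 1), ³H-estradiol (type 2) or ³H-androstenedione (type 3) in growth medium + compound at two concentrations. TCA stop, HPLC-radioflow read; % inhibition from reduced conversion vs no-compound control.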

In assay [2] the target is T2, 17β-hydroxysteroid dehydrogenase type 2 (17β-HSD type 2) (Homo sapiens, UniProt P37059).
T2 construct: expressed in transfected cells; host or cells: MCF-7
T2 sequence (P37059 1-387): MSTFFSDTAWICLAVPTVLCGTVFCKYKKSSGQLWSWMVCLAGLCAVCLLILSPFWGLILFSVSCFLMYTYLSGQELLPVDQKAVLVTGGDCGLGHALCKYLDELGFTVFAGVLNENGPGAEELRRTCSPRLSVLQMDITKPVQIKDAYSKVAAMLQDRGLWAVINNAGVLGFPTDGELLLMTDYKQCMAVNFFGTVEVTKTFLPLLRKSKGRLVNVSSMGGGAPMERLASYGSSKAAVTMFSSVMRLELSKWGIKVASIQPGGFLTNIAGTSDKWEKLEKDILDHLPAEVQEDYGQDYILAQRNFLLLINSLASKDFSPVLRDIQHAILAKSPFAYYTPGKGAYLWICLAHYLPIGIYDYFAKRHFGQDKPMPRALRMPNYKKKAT
The assay can be described thus: Inhibition of 17β-HSD type 2 in MCF-7 cells stably expressing the isoenzyme (tritium labeled estradiol conversion, HPLC). The following applies: MCF-7 cells expressing 17β-HSD type 2, 2 nM tritium labeled estradiol; for inhibition at 1 µM / inhibition at 10 µM: MCF7; for inhibition at 1 µM: read-out: % Inhibition HSD2 1 μM; for inhibition at 10 µM: read-out: % Inhibition HSD2 10 μM. The gist of the method:
as §1

The target in assay [3] is T3, 17β-hydroxysteroid dehydrogenase type 1 (17β-HSD type 1) (Homo sapiens, UniProt P14061).
T3 construct: expressed in transfected cells; host or cells: MCF-7
T3 sequence (P14061 1-328): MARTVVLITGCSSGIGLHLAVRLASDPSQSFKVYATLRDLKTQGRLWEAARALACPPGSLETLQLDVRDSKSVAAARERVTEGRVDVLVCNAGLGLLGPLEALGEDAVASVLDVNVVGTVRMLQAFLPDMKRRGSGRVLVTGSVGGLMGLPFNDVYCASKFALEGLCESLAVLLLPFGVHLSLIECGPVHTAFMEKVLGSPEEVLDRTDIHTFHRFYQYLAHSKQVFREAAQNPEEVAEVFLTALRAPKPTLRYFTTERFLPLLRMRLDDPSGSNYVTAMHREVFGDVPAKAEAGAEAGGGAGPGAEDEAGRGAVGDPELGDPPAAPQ
The assay can be described thus: Inhibition of 17β-HSD type 1 in MCF-7 cells stably expressing the isoenzyme (tritium labeled estrone conversion, HPLC). The conditions noted are these: MCF-7 cells expressing 17β-HSD type 1, 2 nM tritium labeled estrone; for inhibition at 1 µM / inhibition at 10 µM: MCF7; for inhibition at 1 µM: read-out: % Inhibition HSD1 1 μM; for inhibition at 10 µM: read-out: % Inhibition HSD1 10 μM. The gist of the method: as §1

Take `COc1cc(-c2nc3sc4c(O)cccc4c3c(=O)n2Cc2ccccc2)c(Cl)c(OC)c1OC` [No. 124, 3-Benzyl-2-(2-chloro-3,4,5-trimethoxyphenyl)-8-hydroxy-3H-benzo[4,5]thieno[2,3-d]pyrimidin-4-one]: the results for the inhibition at 1 µM in assay [1] (1 μM test compound), in assay [2] (1 μM test compound) and in assay [3] (1 μM test compound) were 8.3%, 0.2% and 40.2%, respectively. Besides, the inhibition at 10 µM in assay [1] (10 μM test compound) was found to be 42.4%; in assay [2] (10 μM test compound) it was 17.6%; in assay [3] (10 μM test compound), 73.3%.

`COC(=O)Cc1nc2sc3c(c2c(=O)n1Cc1ccccc1)CCCC3` [No. 26, 2-(acetic acid methyl ester)-3-benzyl-5,6,7,8-tetrahydro-3H-benzo[4,5]thieno[2,3-d]pyrimidin-4-one]: the inhibition at 1 µM is -6.1% in assay [1] (1 μM test compound), -1.8% in assay [2] (1 μM test compound) and 23.5% in assay [3] (1 μM test compound). For the same molecule, the inhibition at 10 µM in assay [1] (10 μM test compound) stood at 7.1%; in assay [2] (10 μM test compound), 32.3%; in assay [3] (10 μM test compound), 37.4%.

Regarding `CCCc1nc2sc3c(O)cccc3c2c(=O)n1Cc1cc(Br)ccc1O` [No. 100, 3-(5-Bromo-2-hydroxybenzyl)-8-hydroxy-2-propyl-3H-benzo[4,5]thieno[2,3-d]pyrimidin-4-one], the inhibition at 1 µM in assay [1] (1 μM test compound) was -0.8%; in assay [2] (1 μM test compound), 28.8%; in assay [3] (1 μM test compound), 23.5%. The results for the inhibition at 10 µM in assay [1] (10 μM test compound), in assay [2] (10 μM test compound) and in assay [3] (10 μM test compound) were 7.7%, 81.3% and 66.7%, respectively.

`O=c1c2c(nc(CCC3CCCC3)n1CCc1ccccc1)sc1c(O)cccc12` [No. 627]: in assay [1] (1 μM test compound), the “% Inhibition HSD3 1 μM” value is reported as 10.7%. The “% Inhibition HSD3 10 μM” value in assay [1] (10 μM test compound) was 33.9%. For the same molecule, in assay [2] (1 μM test compound), the “% Inhibition HSD2 1 μM” value was 27.1%. Besides, the “% Inhibition HSD2 10 μM” value in assay [2] (10 μM test compound) is 22.6%. Also, in assay [3] (1 μM test compound), the “% Inhibition HSD1 1 μM” value came out at 25.2%. For the same molecule, the “% Inhibition HSD1 10 μM” value in assay [3] (10 μM test compound) came to 26.6%.

For the molecule `CCSC1=C(C=O)CCc2c1sc1nc(-c3ccc(OC)cc3)n(Cc3ccccc3)c(=O)c21` [No. 16, 3-Benzyl-8-ethylsulfanyl-2-(p-methoxyphenyl)-4-oxo-3,4,5,6-tetrahydro-benzo[4,5]thieno[2,3-d]pyrimidine-7-carbaldehyde], the results for the inhibition at 1 µM in assay [1] (1 μM test compound), in assay [2] (1 μM test compound) and in assay [3] (1 μM test compound) were 75.7%, 5% and 1.7%, respectively. Besides, the inhibition at 10 µM in assay [1] (10 μM test compound) came out at 100%; in assay [2] (10 μM test compound), 20.1%; in assay [3] (10 μM test compound), 33.5%.

`CCCCn1c(-c2cc(OC)c(OC)c(OC)c2Br)nc2sc3c(O)cc(C)cc3c2c1=O` [No. 694, 3-Butyl-2-(2-bromo-3,4,5-trimethoxyphenyl)-8-hydroxy-6-methyl-3H-benzo[4,5]thieno[2,3-d]pyrimidin-4-one]: the inhibition at 1 µM in assay [1] (1 μM test compound) is 5.8%; in assay [2] (1 μM test compound), 6.2%; in assay [3] (1 μM test compound) it was 12.1%. In addition, the values for the inhibition at 10 µM in assay [1] (10 μM test compound), in assay [2] (10 μM test compound) and in assay [3] (10 μM test compound) were 21.1%, 15.8% and 10.9%, respectively.

Regarding `O=C1CCCc2c1sc1nc(-c3ccc(Br)s3)n(Cc3ccccc3)c(=O)c21` [No. 64, 3-Benzyl-2-(5-bromothiophen-2-yl)-6,7-dihydro-3H,5H-benzo[4,5]thieno[2,3-d]pyrimidine-4,8-dione], the values for the inhibition at 1 µM in assay [1] (1 μM test compound), in assay [2] (1 μM test compound) and in assay [3] (1 μM test compound) were 12.1%, 15.4% and 15%, respectively. In addition, the inhibition at 10 µM in assay [1] (10 μM test compound) turned out to be 49%; in assay [2] (10 μM test compound), 16.6%; in assay [3] (10 μM test compound), 20.7%.

As to `COc1ccc(-c2nc3sc4c(c3c(=O)n2Cc2ccccc2)CCCC4=O)cc1` [No. 13, 3-Benzyl-2-(p-methoxyphenyl)-6,7-dihydro-3H,5H-benzo[4,5]thieno[2,3-d]pyrimidine-4,8-dione], the inhibition at 1 µM turned out to be 3% in assay [1] (1 μM test compound), 19.5% in assay [2] (1 μM test compound) and 28% in assay [3] (1 μM test compound). Also, the inhibition at 10 µM worked out at 59.1% in assay [1] (10 μM test compound), 19.9% in assay [2] (10 μM test compound) and 43.6% in assay [3] (10 μM test compound).

Regarding `O=c1c2c(nc(-c3ccccc3)n1Cc1ccccc1)sc1c(O)c(Br)ccc12` [No. 92, 3-Benzyl-7-bromo-8-hydroxy-2-phenyl-3H-benzo[4,5]thieno[2,3-d]pyrimidin-4-one], the inhibition at 1 µM worked out at 4.7% in assay [1] (1 μM test compound), 42.7% in assay [2] (1 μM test compound) and 22% in assay [3] (1 μM test compound). The inhibition at 10 µM in assay [1] (10 μM test compound) was determined as 24.3%; in assay [2] (10 μM test compound), 60.9%; in assay [3] (10 μM test compound), 23.3%.

Regarding `CCCCn1c(-c2cc(OC)c(OC)c(OC)c2Br)nc2sc3c(c2c1=O)CC(C)C(Br)C3=O` (stereo not drawn) [No. 693, 3-Butyl-7-bromo-6-methyl-2-(2-bromo-3,4,5-trimethoxyphenyl)-6,7-dihydro-3H-benzo[4,5]thieno[2,3-d]pyrimidin-4,8-dione], the inhibition at 1 µM in assay [1] (1 μM test compound) amounted to 5.2%; in assay [2] (1 μM test compound) it was 18.1%; in assay [3] (1 μM test compound), 15%. Also, the inhibition at 10 µM in assay [1] (10 μM test compound) was 16.8%; in assay [2] (10 μM test compound), 18.2%; in assay [3] (10 μM test compound), 5.7%.

Consider `O=C1c2sc3nc(-c4ccccc4)n(Cc4ccccc4)c(=O)c3c2CCC1(Br)Br` [No. 59, 3-Benzyl-7,7-dibromo-2-phenyl-6,7-dihydro-3H,5H-benzo[4,5]thieno[2,3-d]pyrimidine-4,8-dione], for which the inhibition at 1 µM in assay [1] (1 μM test compound) stood at 17.6%; in assay [2] (1 μM test compound), 36.7%; in assay [3] (1 μM test compound), 24%. Further, the inhibition at 10 µM in assay [1] (10 μM test compound) is 31.7%; in assay [2] (10 μM test compound) it was 40%; in assay [3] (10 μM test compound), 20.8%.

With `O=C(OCCn1c(-c2cccs2)nc2sc3c(c2c1=O)CCC(Br)(Br)C3=O)c1cccs1` [No. 72, Thiophene-2-carboxylic acid 2-(7,7-dibromo-4,8-dioxo-2-thiohen-2-yl-5,6,7,8-tetrahydro-4H-benzo[4,5]thieno[2,3-d]pyrimidin-3-yl)-ethyl ester], the figures for the inhibition at 1 µM in assay [1] (1 μM test compound), in assay [2] (1 μM test compound) and in assay [3] (1 μM test compound) were 16.1%, 18% and 15.3%, respectively. Further, the inhibition at 10 µM was found to be 64.4% in assay [1] (10 μM test compound), 53.9% in assay [2] (10 μM test compound) and 15.2% in assay [3] (10 μM test compound).

As for `O=C(OCCn1c(-c2cccs2)nc2sc3c(c2c1=O)CCC(Br)C3=O)c1cccs1` (stereo not drawn) [No. 71, Thiophene-2-carboxylic acid 2-(7-bromo-4,8-dioxo-2-thiohen-2-yl-5,6,7,8-tetrahydro-4H-benzo[4,5]thieno[2,3-d]pyrimidin-3-yl)-ethyl ester], the results for the inhibition at 1 µM in assay [1] (1 μM test compound), in assay [2] (1 μM test compound) and in assay [3] (1 μM test compound) were 21.9%, 28.9% and 20.7%, respectively. In addition, the inhibition at 10 µM in assay [1] (10 μM test compound) is 36%; in assay [2] (10 μM test compound), 24.5%; in assay [3] (10 μM test compound), 20.8%.

As for `COc1cc(-c2nc3sc4c(c3c(=O)n2Cc2ccccc2)CCCC4=O)cc(OC)c1OC` [No. 2, 3-Benzyl-2-(3,4,5-trimethoxyphenyl)-6,7-dihydro-3H,5H-benzo[4,5]thieno[2,3-d]pyrimidine-4,8-dione], the inhibition at 1 µM in assay [1] (1 μM test compound) was determined as 11.7%; in assay [2] (1 μM test compound) it was 1.5%; in assay [3] (1 μM test compound), 17.3%. Moreover, the inhibition at 10 µM amounted to 40.5% in assay [1] (10 μM test compound), 33.2% in assay [2] (10 μM test compound) and 58.7% in assay [3] (10 μM test compound).

The term inhibition denotes the relative decrease from the control value, in per cent.
